≈ marks a conversion by molar mass, not a printed value. Where two headings read alike, the source gives them in different places.
Tests used:
E. coli 426 (IMP-1) = experiment: Susceptibility test, clinical isolate; assay type: cell-based; conditions: Escherichia coli
Protocol: (§1) Susceptibility testing, based on the microdilution method, was performed according to the guidelines of the Clinical and Laboratory Standards Institute ([36]).

[1] = system: K. pneumoniae NUBL-23 (IMP-6); experiment: Susceptibility test, clinical isolate; assay type: cell-based; conditions: Klebsiella pneumoniae
Protocol: as §1

[2] = system: K. pneumoniae MS5674 (NDM-1/VIM-1); experiment: Susceptibility test, clinical isolate; assay type: cell-based; conditions: Klebsiella pneumoniae
Protocol: as §1

[3] = system: P. penneri E11-M475 (IMP-1); experiment: Susceptibility test, clinical isolate; assay type: cell-based; conditions: Proteus penneri
Protocol: as §1

[4] = system: K. oxytoca NUBL-827 (IMP-1); experiment: Susceptibility test, clinical isolate; assay type: cell-based; conditions: Klebsiella oxytoca
Protocol: as §1

IMP-1 = target: T1, IMP-1 (Serratia marcescens, UniProt P52699); assay type: biochemical; conditions: IMP-1 with agent (5 mM stock), dialysis
T1 construct: made in house
T1 sequence (P52699 19-246, looked up, species assumed): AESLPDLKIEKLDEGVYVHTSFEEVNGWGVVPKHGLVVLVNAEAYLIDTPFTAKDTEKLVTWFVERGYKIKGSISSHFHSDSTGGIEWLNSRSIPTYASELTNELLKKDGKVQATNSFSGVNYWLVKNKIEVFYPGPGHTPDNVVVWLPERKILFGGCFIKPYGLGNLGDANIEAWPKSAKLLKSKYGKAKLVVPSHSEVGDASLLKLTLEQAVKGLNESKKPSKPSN
Protocol: A total of 5 µL of IMP-1 (100 µM) and 2 µL of EDTA (5 mM) or HHIA (5 mM) were mixed in 100 µL of 20 mM HEPES buffer (pH 7.5) pretreated with Chelex 100 resin (Bio-Rad) and incubated on ice for 30 min. The samples were dialyzed against ultrapure water at 4°C for 6 h using Slide-A-Lyzer Dialysis Cassettes (cutoff, 3.5 K) (Thermo Fisher Scientific) and treated with proteinase K (FUJIFILM Wako Pure Chemical Corporation) at 37°C for 1 h. The zinc concentration in the samples was determined using a Zinc Assay Kit (MG Metallogenics).

[5] = +HHIA 6.25 µg/mL, read-out: IPM MIC
[6] = +HHIA 6.25 μg/mL, read-out: MPM MIC
[7] = +HHIA 25 µg/mL, read-out: IPM MIC
[8] = +HHIA 25 μg/mL, read-out: MPM MIC
[9] = +HHIA 100 µg/mL, read-out: IPM MIC
[10] = +HHIA 100 μg/mL, read-out: MPM MIC

Row | SMILES | MIC (E. coli 426 (IMP-1); [5]) | MIC (E. coli 426 (IMP-1); [6]) | MIC (E. coli 426 (IMP-1); [7]) | MIC (E. coli 426 (IMP-1); [8]) | MIC (E. coli 426 (IMP-1); [9]) | MIC (E. coli 426 (IMP-1); [10]) | MIC [1, 5] | MIC [1, 6] | MIC [1, 7] | MIC [1, 8] | MIC [1, 9] | MIC [1, 10] | MIC [2, 5] | MIC [2, 6] | MIC [2, 7] | MIC [2, 8] | MIC [2, 9] | MIC [2, 10] | MIC [3, 5] | MIC [3, 6] | further results
1 | C=C(C(=O)O)C(CCCCCCO)C(=O)O (centres unmarked) [10-HHIA, 10-hydroxyhexylitaconic acid] | 8 µg/mL (≈ 34.7 µM) | 8 µg/mL (≈ 34.7 µM) | 4 µg/mL (≈ 17.4 µM) | 1 µg/mL (≈ 4.34 µM) | 2 µg/mL (≈ 8.69 µM) | 0.25 µg/mL (≈ 1.09 µM) | 0.5 µg/mL (≈ 2.17 µM) | 32 µg/mL (≈ 139 µM) | 0.25 µg/mL (≈ 1.09 µM) | 2 µg/mL (≈ 8.69 µM) | 0.5 µg/mL (≈ 2.17 µM) | 0.25 µg/mL (≈ 1.09 µM) | 32 µg/mL (≈ 139 µM) | > 64 µg/mL | 64 µg/mL (≈ 278 µM) | > 64 µg/mL | 32 µg/mL (≈ 139 µM) | 64 µg/mL (≈ 278 µM) | > 64 µg/mL | > 64 µg/mL | MIC [3, 7]: > 64 µg/mL; MIC [3, 8]: > 64 µg/mL; MIC [3, 9]: 64 µg/mL (≈ 278 µM); MIC [3, 10]: 16 µg/mL (≈ 69.5 µM); MIC [4, 5]: 8 µg/mL (≈ 34.7 µM); MIC [4, 6]: 16 µg/mL (≈ 69.5 µM); MIC [4, 7]: 4 µg/mL (≈ 17.4 µM); MIC [4, 8]: 8 µg/mL (≈ 34.7 µM); MIC [4, 9]: 2 µg/mL (≈ 8.69 µM); MIC [4, 10]: 1 µg/mL (≈ 4.34 µM); Zinc ions in IMP-1 after treatment (IMP-1): did not cause a significant loss of zinc ions
2 | C=C(C(=O)O)C(CCCCC(C)O)C(=O)O (centres unmarked) [9-HHIA, 9-hydroxyhexylitaconic acid] | 8 µg/mL (≈ 34.7 µM) | 8 µg/mL (≈ 34.7 µM) | 4 µg/mL (≈ 17.4 µM) | 4 µg/mL (≈ 17.4 µM) | 2 µg/mL (≈ 8.69 µM) | 0.25 µg/mL (≈ 1.09 µM) | 0.5 µg/mL (≈ 2.17 µM) | 32 µg/mL (≈ 139 µM) | 0.5 µg/mL (≈ 2.17 µM) | 16 µg/mL (≈ 69.5 µM) | 0.5 µg/mL (≈ 2.17 µM) | 0.5 µg/mL (≈ 2.17 µM) | 64 µg/mL (≈ 278 µM) | > 64 µg/mL | 32 µg/mL (≈ 139 µM) | > 64 µg/mL | 32 µg/mL (≈ 139 µM) | 64 µg/mL (≈ 278 µM) | > 64 µg/mL | > 64 µg/mL | MIC [3, 7]: > 64 µg/mL; MIC [3, 8]: > 64 µg/mL; MIC [3, 9]: > 64 µg/mL; MIC [3, 10]: 32 µg/mL (≈ 139 µM); MIC [4, 5]: 8 µg/mL (≈ 34.7 µM); MIC [4, 6]: 32 µg/mL (≈ 139 µM); MIC [4, 7]: 4 µg/mL (≈ 17.4 µM); MIC [4, 8]: 16 µg/mL (≈ 69.5 µM); MIC [4, 9]: 2 µg/mL (≈ 8.69 µM); MIC [4, 10]: 4 µg/mL (≈ 17.4 µM); Zinc ions in IMP-1 after treatment (IMP-1): did not cause a significant loss of zinc ions

Reference: publication PMC10913484, “Hydroxyhexylitaconic acids as potent IMP-type metallo-β-lactamase inhibitors for controlling carbapenem resistance in Enterobacterales” (Microbiology Spectrum, 2024)
